We go through five compounds from US20060160869A1, “Ubiquitin ligase inhibitors” (Rigel Pharmaceuticals, Inc., priority 2005, published 2006).

The target of the first experiment is E1 and E2 (UBCH5a) (Homo sapiens, UniProt P22314+P51668). Put plainly: E1/E2 plate enzyme counter assay. It counts as biochemical. The conditions noted are these: Table 3, counter assay. From the text: E1/E2 is E1 and E2 (UBCH5a) enzyme counter assay.
In the case of `O=C(c1ccc(CN(CCOc2ccccc2)c2nc(-c3ccc(Cl)c(Cl)c3)cs2)cc1)N1CCNCC1` [compound 360], the “E1/E2 plate μM” value is recorded as “+ (+ means 20 μM or greater)”.

In a further experiment the test system is HCT116 cells. Put plainly: PAD anti-proliferation assay, HCT. It counts as cell-based. The conditions noted are these: Homo sapiens, HCT-116, 48 hours. The procedure: A549 (ATCC# CCL 185), HeLa (ATCC# CCL 2), HCT116 (ATCC# CCL-247), and H 1299 (ATCC# CRL-5803) cells were maintained in T175 flasks following the ATCC recommended media and handling procedures. Flasks reaching approximately 70% confluency were trypsinized and resuspended in RPMI media (Cell Gro catalog number 10 040 CM) modified to contain 5% FBS, 100 ug/mlPen/Strep (Cell Gro catalog number 30 002 CL), and 0.3 mg/ml L Glutamine (Cell Gro catalog number 25 003 CL). A 20,000 cells/ml solution was made for plating. Cells were plated in black Packard 96 well plates by placing 100 μl per well (2,000 cells per well).
Compounds and additional media were added 24′ hours after cell plating. A compound master plate was created with concentrations 500 times greater than the final concentration added to the cells. All compound testing was done in duplicate using 3 fold dilutions starting with 10 mM. All outside wells (and 4 internal wells) were DMSO controls. Taxol and at least one additional control were run on all plates. Three microliters of the compound master plate were added to deep well blocks containing 750 μl of RPMI media. One hundred microliters were transferred from the compound/media deep well blocks to the plated cells resulting in a 500 fold dilution of the compounds. Cells were grown at 37° C., 5% CO2 for 48 hours.
Cells to be analyzed by photography were fixed and stained. One hundred microliters of media were removed and 100 μl of 2% paraformaldehyde was added to each well. Plates were left on the benchtop for 45 minutes. A staining solution containing 1.55 μl of 1 mg/ml DAPI added to 18.75 ml PBS was warmed for 15 minutes at 37° C. The cells were aspirated prior to washing with 100 μl of PBS. Seventy microliters of PBS were aspirated and 170 μl of the DAPI solution were added to each well of fixed cells. Plates were left at room temperature for one hour then aspirated and washed twice with 100 μl of PBS. The stained cells were left at 4° C. for a minimum of 16 hours before photographic analysis with Array Scan II (Cellomics). Analysis of the photographic images to determine numbers of live cells (proliferation), apoptotic cells and dead cells, were according to the methods described in U.S. Provisional Patent Application Ser. No. 60/406,714, which incorporated herein in its entirety.
With `O=C(c1ccc(CN(Cc2cccc(OC(F)(F)F)c2)c2nc(-c3ccccc3)cs2)cc1)N1CCNCC1` [compound 275], the 50% inhibitory concentration (IC50) was 1 to 20 µM.

Take `O=C(c1ccc(CN(Cc2cccc(OC(F)(F)F)c2)c2nc(-c3ccc4ccccc4c3)cs2)cc1)N1CCNCC1` [compound 282, 4-(2-naphthyl)-N-[4-(piperazin-1-ylcarbonyl)benzyl]-N-[3-(trifluoromethoxy)benzyl]-1,3-thiazol-2-amine]: the IC50 was in the range of 1 to 20 µM.

Regarding `COc1cccc(-c2csc(N(Cc3ccc(C(=O)N4CCNCC4)cc3)Cc3cccc(OC(F)(F)F)c3)n2)c1` [compound 351], the half-inhibitory concentration (IC50) was in the range of 1 to 20 µM.

On to `O=C(c1ccc(CN(CCOc2ccccc2)c2nc(-c3ccc(Cl)c(Cl)c3)cs2)cc1)N1CCNCC1` [compound 360], for which the IC50 lay in the range of 1 to 20 µM.

`COc1cccc(CN(Cc2ccc(C(=O)N3CCNCC3)cc2)c2nc(-c3ccc(Br)cc3)cs2)c1OC` [compound 353] yielded an IC50 of 1 to 20 µM.

By IC50 is commonly meant the point on the concentration scale where inhibition reaches its midpoint.
